Experimental data reported in patent publication US10357484B2, “Heterocyclic compound” (Takeda Pharmaceutical Company Limited, priority 2015, dated 2019).

Key:
Assay type in all cases: biochemical
HDAC6 enzyme = target: T1, HDAC6 enzyme (Homo sapiens, UniProt Q9UBN7); assay: HDAC6 enzyme inhibitory assay (HDAC-Glo I/II Assay kit); conditions: 1 μM test compound; wells without enzyme = 100% inhibition; read-out: HDAC6 inhibitory rate (%) (1 μM)
T1 construct: transducing full length HDAC1 and HDAC6 genes into Sf-9 insect cells; GST; purchased SignalChem; host or cells: Sf-9 insect cells
T1 sequence (Q9UBN7 1-1215): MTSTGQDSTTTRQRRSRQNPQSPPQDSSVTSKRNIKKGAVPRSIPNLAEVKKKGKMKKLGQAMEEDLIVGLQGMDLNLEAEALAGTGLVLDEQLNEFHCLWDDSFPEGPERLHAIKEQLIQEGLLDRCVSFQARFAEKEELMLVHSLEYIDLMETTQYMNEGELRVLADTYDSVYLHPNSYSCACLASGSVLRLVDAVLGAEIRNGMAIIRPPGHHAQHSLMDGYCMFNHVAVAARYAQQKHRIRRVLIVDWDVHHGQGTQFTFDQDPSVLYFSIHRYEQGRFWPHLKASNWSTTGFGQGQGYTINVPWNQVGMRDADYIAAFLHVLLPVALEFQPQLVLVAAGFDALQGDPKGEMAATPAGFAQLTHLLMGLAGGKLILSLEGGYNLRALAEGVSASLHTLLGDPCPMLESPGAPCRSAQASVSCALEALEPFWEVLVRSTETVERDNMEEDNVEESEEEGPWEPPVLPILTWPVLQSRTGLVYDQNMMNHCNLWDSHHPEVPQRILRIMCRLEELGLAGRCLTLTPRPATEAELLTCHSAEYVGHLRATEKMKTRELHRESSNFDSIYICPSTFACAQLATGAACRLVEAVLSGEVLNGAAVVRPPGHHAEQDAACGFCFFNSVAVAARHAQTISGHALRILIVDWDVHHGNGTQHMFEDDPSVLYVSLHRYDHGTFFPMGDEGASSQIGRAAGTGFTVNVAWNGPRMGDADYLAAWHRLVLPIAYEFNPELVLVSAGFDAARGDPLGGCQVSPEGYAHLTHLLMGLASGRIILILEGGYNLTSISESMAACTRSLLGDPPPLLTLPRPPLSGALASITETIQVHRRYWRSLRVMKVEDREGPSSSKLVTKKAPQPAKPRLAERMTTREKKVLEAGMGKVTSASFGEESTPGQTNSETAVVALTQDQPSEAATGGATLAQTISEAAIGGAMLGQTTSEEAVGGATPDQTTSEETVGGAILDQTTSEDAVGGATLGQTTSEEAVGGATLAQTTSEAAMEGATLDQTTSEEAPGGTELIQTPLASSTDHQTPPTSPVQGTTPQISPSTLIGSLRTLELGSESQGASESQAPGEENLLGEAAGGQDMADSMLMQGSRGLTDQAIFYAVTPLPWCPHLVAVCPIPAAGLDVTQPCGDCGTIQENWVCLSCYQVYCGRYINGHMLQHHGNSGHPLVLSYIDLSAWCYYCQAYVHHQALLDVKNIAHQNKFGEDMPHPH
Experimental: (§1) HDAC1/6 Enzyme Inhibitory Assay
(§2) HDAC1 enzyme and HDAC6 enzyme each prepared by transducing full length HDAC1 and HDAC6 genes into Sf-9 insect cells and purifying by GST affinity column were purchased from SignalChem. Using these enzymes, HDAC1 and/or HDAC6 enzyme inhibitory activities of the compound of the present invention were evaluated. Enzymes were used after preserved at −70° C. HDAC1 or HDAC6 enzyme inhibitory activity of the compound of the present invention was measured using HDAC-Glo™ I/II Assay kit (Promega) according to the following experimental method. The test compound diluted with assay buffer (24 mM Tris-HCl (pH 7.5), 1 mM MgCl2, 0.35 mM KCl, 135 mM NaCl, 0.6 mM Glutathione, 0.01% Tween-20) was added to a 384-well plate by each 2 μL. Then, HDAC1 or HDAC6 enzyme solution diluted with assay buffer was added thereto by each 4 μL, and the plate was incubated at room temperature for 60 min. After incubated, HDAC substrate-Developer solution prepared according to Promega protocol attached to the assay kit was added to the 384-well plate by each 2 μL, and the enzyme reaction was started. After reacting at room temperature for 20 min, luminescence level was measured using plate reader Envision (PerkinElmer). The inhibitory activity of each compound was calculated as a relative activity value when luminescence level in wells without enzyme is considered as 100% inhibition.

HDAC1 enzyme = target: T2, HDAC1 enzyme (Homo sapiens, UniProt Q13547); assay: HDAC1 enzyme inhibitory assay (HDAC-Glo I/II Assay kit); conditions: 1 μM test compound; wells without enzyme = 100% inhibition; read-out: HDAC1 inhibitory rate (%) (1 μM)
T2 construct: transducing full length HDAC1 and HDAC6 genes into Sf-9 insect cells; GST; purchased SignalChem; host or cells: Sf-9 insect cells
T2 sequence (Q13547 whole entry): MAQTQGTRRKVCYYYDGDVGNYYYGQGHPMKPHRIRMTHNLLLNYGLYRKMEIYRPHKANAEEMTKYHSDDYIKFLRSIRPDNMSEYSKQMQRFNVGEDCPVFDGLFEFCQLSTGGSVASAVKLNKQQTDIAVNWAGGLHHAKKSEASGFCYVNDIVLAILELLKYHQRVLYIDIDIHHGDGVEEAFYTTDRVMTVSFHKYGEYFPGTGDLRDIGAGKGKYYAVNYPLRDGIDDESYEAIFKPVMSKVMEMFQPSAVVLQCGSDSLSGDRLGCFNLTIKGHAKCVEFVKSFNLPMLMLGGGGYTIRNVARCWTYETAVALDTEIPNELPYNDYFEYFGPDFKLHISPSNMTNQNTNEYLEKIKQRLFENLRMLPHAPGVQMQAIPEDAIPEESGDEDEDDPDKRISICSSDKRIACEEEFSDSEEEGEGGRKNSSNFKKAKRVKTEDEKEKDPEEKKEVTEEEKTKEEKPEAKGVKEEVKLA
Experimental: as §1, §2

HDAC9 enzyme = target: T3, HDAC9 enzyme (Homo sapiens, UniProt Q9UKV0); assay: HDAC9 enzyme inhibitory assay (HDAC-Glo class IIa); conditions: 1 μM test compound; wells without enzyme = 100% inhibition; read-out: HDAC9 inhibitory rate (%) (1 μM)
T3 construct: transducing full length HDAC9 gene into Sf-9 insect cells; made in house; host or cells: Sf-9 insect cells
T3 sequence (Q9UKV0 whole entry, species assumed): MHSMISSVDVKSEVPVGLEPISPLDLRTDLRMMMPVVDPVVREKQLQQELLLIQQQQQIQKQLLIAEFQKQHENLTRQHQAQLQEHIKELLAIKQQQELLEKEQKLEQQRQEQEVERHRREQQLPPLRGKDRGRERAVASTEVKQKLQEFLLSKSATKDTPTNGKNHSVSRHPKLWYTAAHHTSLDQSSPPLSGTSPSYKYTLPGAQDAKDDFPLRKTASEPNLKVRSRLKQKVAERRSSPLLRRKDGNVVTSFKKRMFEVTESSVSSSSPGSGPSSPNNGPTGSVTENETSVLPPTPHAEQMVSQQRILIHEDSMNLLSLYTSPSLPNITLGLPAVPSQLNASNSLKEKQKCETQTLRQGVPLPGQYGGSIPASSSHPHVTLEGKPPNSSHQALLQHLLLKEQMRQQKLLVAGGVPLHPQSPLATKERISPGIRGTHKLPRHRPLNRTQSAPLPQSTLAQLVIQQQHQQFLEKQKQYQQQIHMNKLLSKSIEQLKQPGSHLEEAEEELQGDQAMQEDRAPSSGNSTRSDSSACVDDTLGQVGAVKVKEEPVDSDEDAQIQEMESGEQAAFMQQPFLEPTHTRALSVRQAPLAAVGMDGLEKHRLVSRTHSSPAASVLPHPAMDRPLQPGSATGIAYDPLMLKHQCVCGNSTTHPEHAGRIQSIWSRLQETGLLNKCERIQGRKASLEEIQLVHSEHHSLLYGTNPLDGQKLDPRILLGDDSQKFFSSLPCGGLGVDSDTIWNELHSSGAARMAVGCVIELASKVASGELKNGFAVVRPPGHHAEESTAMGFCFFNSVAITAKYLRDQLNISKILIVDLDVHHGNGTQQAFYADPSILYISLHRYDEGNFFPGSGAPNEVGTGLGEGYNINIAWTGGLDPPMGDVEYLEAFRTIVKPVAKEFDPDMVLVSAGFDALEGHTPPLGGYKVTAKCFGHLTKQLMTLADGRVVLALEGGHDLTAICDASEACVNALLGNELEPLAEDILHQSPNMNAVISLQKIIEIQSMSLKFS
Experimental: HDAC9 Enzyme Inhibitory Assay
Enzyme was prepared by transducing full length HDAC9 gene into Sf-9 insect cells and purifying by Ni-NTA affinity column, and HDAC9 enzyme inhibitory activity was evaluated. Enzymes were used after preserved at −70° C. HDAC9 enzyme inhibitory activity of the test compound was measured using HDAC-Glo class IIa (Promega) according to the following experimental method. The test compound diluted with assay buffer (24 mM Tris-HCl (pH 7.5), 1 mM MgCl2, 0.35 mM KCl, 135 mM NaCl, 0.6 mM Glutathione, 0.01% Tween-20) was added to a 384-well plate by each 2 μL. Then, HDAC9 enzyme solution diluted with assay buffer was added thereto by each 2 μL, and the plate was incubated at room temperature for 60 min. After incubated, HDAC substrate-Developer solution prepared according to Promega protocol was added to the 384-well plate by each 4 μL, and the enzyme reaction was started. After reacting at room temperature for 20 min, luminescence level was measured using plate reader Envision (PerkinElmer). The inhibitory activity of each compound was calculated as a relative activity value when luminescence level in wells without enzyme is considered as 100% inhibition.

inhibition at 1 µM (HDAC6 enzyme) [%]	inhibition at 1 µM (HDAC1 enzyme) [%]	inhibition at 1 µM (HDAC9 enzyme) [%]	SMILES
94	30	83	CS(=O)(=O)c1ccc(CN2Cc3ccc(-c4noc(C(F)(F)F)n4)cc3C2=O)cc1 [Example 30, 2-(4-(methylsulfonyl)benzyl)-6-(5-(trifluoromethyl)-1,2,4-oxadiazol-3-yl)isoindolin-1-one]
95	8	58	O=C1c2cc(-c3noc(C(F)(F)F)n3)ccc2CN1Cc1ccccc1OC(F)(F)F [Example 26, 2-(2-(trifluoromethoxy)benzyl)-6-(5-(trifluoromethyl)-1,2,4-oxadiazol-3-yl)isoindolin-1-one]
97	23	85	Cc1cc(CN2Cc3ccc(-c4noc(C(F)(F)F)n4)cc3C2=O)nn1C [Example 38, 2-((1,5-dimethyl-1H-pyrazol-3-yl)methyl)-6-(5-(trifluoromethyl)-1,2,4-oxadiazol-3-yl)isoindolin-1-one]
95	20	85	C[C@@H](c1cccc(F)c1)N1Cc2ccc(-c3noc(C(F)(F)F)n3)cc2C1=O [Example 16, 2-((1S)-1-(3-fluorophenyl)ethyl)-6-(5-(trifluoromethyl)-1,2,4-oxadiazol-3-yl)isoindolin-1-one]
95	26	82	N#Cc1cccc(CN2Cc3ccc(-c4noc(C(F)(F)F)n4)cc3C2=O)c1 [Example 28, 3-((1-oxo-6-(5-(trifluoromethyl)-1,2,4-oxadiazol-3-yl)-1,3-dihydro-2H-isoindol-2-yl)methyl)benzonitrile]
97	17	75	O=C1c2cc(-c3noc(C(F)(F)F)n3)ccc2CN1Cc1ccccc1F [Example 24, 2-(2-fluorobenzyl)-6-(5-(trifluoromethyl)-1,2,4-oxadiazol-3-yl)isoindolin-1-one]
96	20	84	Cc1csc(CN2Cc3ccc(-c4noc(C(F)(F)F)n4)cc3C2=O)n1 [Example 37, 2-((4-methyl-1,3-thiazol-2-yl)methyl)-6-(5-(trifluoromethyl)-1,2,4-oxadiazol-3-yl)isoindolin-1-one]
97	52	93	C[C@@H](c1ccccc1)N1Cc2ncc(-c3noc(C(F)(F)F)n3)cc2C1=O [Example 40, 6-((1S)-1-phenylethyl)-3-(5-(trifluoromethyl)-1,2,4-oxadiazol-3-yl)-6,7-dihydro-5H-pyrrolo[3,4-b]pyridin-5-one]
99	13	77	O=C1c2cc(-c3noc(C(F)(F)F)n3)ccc2CN1Cc1ccccn1 [Example 32]
